Data: ChEMBL document CHEMBL1201862, “PubChem BioAssay data set” (2004)
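In this assay, cells in 96-well plates receive the compound at five concentrations for 48 hours. Endpoints are linearly interpolated between the surrounding concentrations. GI50: concentration for 50% inhibition of growth.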 The source made the active and inactive calls. Rule as the data show it: active = GI50 up to about 1.1 µM and inactive = higher.

Legend:
Experiment in all cases: NCI tumour cell line growth inhibition, 48 h
[1] = tested on: UACC-62
[2] = tested on: COLO 205
[3] = tested on: SK-OV-3
[4] = tested on: NCI-H460
[5] = tested on: MDA-MB-231
[6] = tested on: KM12
[7] = tested on: Hs-578T
[8] = tested on: HL-60
[9] = tested on: UO-31
[10] = tested on: UACC-257
[11] = tested on: U-251
[12] = tested on: HCT-15
[13] = tested on: K562
[14] = tested on: SW-620
[15] = tested on: SN12C
[16] = tested on: SF-268
[17] = tested on: A498
[18] = tested on: OVCAR-8
[19] = tested on: ACHN
[20] = tested on: SF-295

Row | Compound | GI50 [1] | GI50 [2] | GI50 [3] | GI50 [4] | GI50 [5] | GI50 [6] | GI50 [7] | GI50 [8] | GI50 [9] | GI50 [10] | GI50 [11] | GI50 [12] [µM] | GI50 [13] | GI50 [14] | GI50 [15] | GI50 [16] | GI50 [17] | GI50 [18] | GI50 [19] | GI50 [20]
1 | CCOP(=O)(OCC)/C(C#N)=C/c1c(C)[nH]c2ccccc12 | > 100 µM (inactive) | > 100 µM (inactive) | > 100 µM (inactive) | > 100 µM (inactive) | > 100 µM (inactive) | > 100 µM (inactive) | > 100 µM (inactive) | > 100 µM (inactive) | 30.4 µM (inactive) | > 100 µM (inactive) | > 100 µM (inactive) | > 100 | > 100 µM (inactive) | > 100 µM (inactive) | > 100 µM (inactive) | > 100 µM (inactive) | > 100 µM (inactive) | > 100 µM (inactive) | > 100 µM (inactive) | > 100 µM (inactive)
2 | C=CC(=O)N1C/C(=C\c2ccc(Cl)cc2)C(=O)/C(=C/c2ccc(Cl)cc2)C1 | 0.294 µM (active) | 0.39 µM (active) | 0.656 µM (active) | 0.468 µM (active) | 0.255 µM (active) | 0.234 µM (active) | 0.321 µM (active) | 0.484 µM (active) | 0.335 µM (active) | 1.19 µM (inactive) | 0.173 µM (active) | 0.182 | 0.265 µM (active) | 0.15 µM (active) | 0.313 µM (active) | 0.221 µM (active) | 0.494 µM (active) | 0.322 µM (active) | 0.286 µM (active) | 0.288 µM (active)
3 | N#CC(NCCc1ccccc1)c1ccc(C(C#N)NCCc2ccccc2)cc1 (stereo not given) | > 100 µM (inactive) | 48 µM (inactive) | > 100 µM (inactive) | > 100 µM (inactive) | > 100 µM (inactive) | > 100 µM (inactive) | 71.8 µM (inactive) | 14.6 µM (inactive) | 93.1 µM (inactive) | > 100 µM (inactive) | 8.17 µM (inactive) | > 100 | 24.2 µM (inactive) | 32.8 µM (inactive) | 97.5 µM (inactive) | 69.3 µM (inactive) | > 100 µM (inactive) | 73.6 µM (inactive) | > 100 µM (inactive) | > 100 µM (inactive)
4 | OC1(c2ccccc2)CC2CCC(C1)N2CCCC(O)(c1ccccc1)c1ccccc1 (stereo not given) | 14.3 µM (inactive) | 10.5 µM (inactive) | 13.8 µM (inactive) | 2.2 µM (inactive) | 18.9 µM (inactive) | 15.3 µM (inactive) | 4.83 µM (inactive) | 22.9 µM (inactive) | 7.55 µM (inactive) | 2 µM (inactive) | 15.1 µM (inactive) | 14.2 | 4.99 µM (inactive) | 7.33 µM (inactive) | 16.7 µM (inactive) | 13.4 µM (inactive) | 15.5 µM (inactive) | 19.2 µM (inactive) | 17.2 µM (inactive) | 3.33 µM (inactive)
5 | CSC1(C(=O)O)C2CCC3C2CCC31 (stereo not given) | > 100 µM (inactive) | > 100 µM (inactive) | > 100 µM (inactive) | 62.1 µM (inactive) | > 100 µM (inactive) | > 100 µM (inactive) | > 100 µM (inactive) | 99.5 µM (inactive) | > 100 µM (inactive) | > 100 µM (inactive) | > 100 µM (inactive) | > 100 | 73.3 µM (inactive) | > 100 µM (inactive) | > 100 µM (inactive) | > 100 µM (inactive) | > 100 µM (inactive) | > 100 µM (inactive) | > 100 µM (inactive) | > 100 µM (inactive)
6 | CCN(C(C)=O)c1cnc(/C=N/NC(N)=S)c2ccccc12 | 3.3 µM (inactive) | 4.83 µM (inactive) | 3.65 µM (inactive) | 1.5 µM (inactive) | 18.6 µM (inactive) | 2.94 µM (inactive) | 80.5 µM (inactive) | 1.77 µM (inactive) | 1.81 µM (inactive) | 30.1 µM (inactive) | 3.85 µM (inactive) | 2.25 | 4 µM (inactive) | 5.68 µM (inactive) | 3.21 µM (inactive) | 1.58 µM (inactive) | 19.8 µM (inactive) | 2.29 µM (inactive) | 1.76 µM (inactive) | 3.14 µM (inactive)
7 | Cc1ccc2cccc(OC(=O)c3cc4c(cc3Cl)Sc3nccn3S4(=O)=O)c2n1 | 14.7 µM (inactive) | 15.8 µM (inactive) | 22.8 µM (inactive) | 3.13 µM (inactive) | 14.1 µM (inactive) | 5.75 µM (inactive) | 13.4 µM (inactive) | < 0.01 µM (active) | 2.05 µM (inactive) | 12.2 µM (inactive) | 4.34 µM (inactive) | 5.26 | 4.06 µM (inactive) | 9.71 µM (inactive) | 12.8 µM (inactive) | 6.98 µM (inactive) | 17.7 µM (inactive) | 4.71 µM (inactive) | 10.5 µM (inactive) | 12.9 µM (inactive)
8 | N#C/C(=C/n1c(=S)[nH]c2ccccc21)C(N)=O | > 100 µM (inactive) | > 100 µM (inactive) | > 100 µM (inactive) | > 100 µM (inactive) | > 100 µM (inactive) | > 100 µM (inactive) | > 100 µM (inactive) | 16.7 µM (inactive) | > 100 µM (inactive) | > 100 µM (inactive) | > 100 µM (inactive) | > 100 | > 100 µM (inactive) | > 100 µM (inactive) | > 100 µM (inactive) | > 100 µM (inactive) | > 100 µM (inactive) | > 100 µM (inactive) | > 100 µM (inactive) | > 100 µM (inactive)
9 | COc1c2c3c4c(c(OC)c(=O)c5c(O)cc(OC)c(c6c(OC)cc(O)c(c1=O)c63)c54)C(C(C)O)C2C(C)O (stereo not given) | 0.953 µM (active) | 0.789 µM (active) | 1.31 µM (inactive) | 0.345 µM (active) | 1.84 µM (inactive) | 0.873 µM (active) | 0.855 µM (active) | 0.392 µM (active) | 0.39 µM (active) | 0.792 µM (active) | 0.405 µM (active) | 1.2 | 0.387 µM (active) | 0.522 µM (active) | 0.92 µM (active) | 1.07 µM (active) | 0.918 µM (active) | 0.449 µM (active) | 0.811 µM (active) | 0.562 µM (active)
10 | O=C(O)C(SC1=NC(=O)C2(NN1)c1ccccc1-c1ccccc12)SC1=NC(=O)C2(NN1)c1ccccc1-c1ccccc12 | > 10 µM (inactive) | > 10 µM (inactive) | > 10 µM (inactive) | > 10 µM (inactive) | > 10 µM (inactive) | > 10 µM (inactive) | > 10 µM (inactive) | 5.14 µM (inactive) | > 10 µM (inactive) | > 10 µM (inactive) | > 10 µM (inactive) | > 10 | 9.51 µM (inactive) | > 10 µM (inactive) | > 10 µM (inactive) | > 10 µM (inactive) | > 10 µM (inactive) | > 10 µM (inactive) | > 10 µM (inactive) | > 10 µM (inactive)
